Results as given in patent US6642215B2 (Leo Pharma A/S, priority 2001, dated 2003).
Read-outs that look alike come from different tables or passages of the source.

Legend:
IKK = molecular target: T1, IKK (Homo sapiens, UniProt O14920); assay: In vitro kinase assay: IKK immunoprecipitated from LPS-stimulated THP-1 cells, GST-IκBα phosphorylation; type: biochemical; settings: GST-IκB phosphorylated by activated IKK pretreated with the compound
T1 construct: IKK was immunoprecipitated with an IKKα/β antibody; endogenous in cells; host or cells: THP-1 cells stimulated with 1 μg/ml LPS; whole cell extract immunoprecipitated with an IKKα/β antibody (Santa Cruz)
T1 sequence (O14920 whole entry): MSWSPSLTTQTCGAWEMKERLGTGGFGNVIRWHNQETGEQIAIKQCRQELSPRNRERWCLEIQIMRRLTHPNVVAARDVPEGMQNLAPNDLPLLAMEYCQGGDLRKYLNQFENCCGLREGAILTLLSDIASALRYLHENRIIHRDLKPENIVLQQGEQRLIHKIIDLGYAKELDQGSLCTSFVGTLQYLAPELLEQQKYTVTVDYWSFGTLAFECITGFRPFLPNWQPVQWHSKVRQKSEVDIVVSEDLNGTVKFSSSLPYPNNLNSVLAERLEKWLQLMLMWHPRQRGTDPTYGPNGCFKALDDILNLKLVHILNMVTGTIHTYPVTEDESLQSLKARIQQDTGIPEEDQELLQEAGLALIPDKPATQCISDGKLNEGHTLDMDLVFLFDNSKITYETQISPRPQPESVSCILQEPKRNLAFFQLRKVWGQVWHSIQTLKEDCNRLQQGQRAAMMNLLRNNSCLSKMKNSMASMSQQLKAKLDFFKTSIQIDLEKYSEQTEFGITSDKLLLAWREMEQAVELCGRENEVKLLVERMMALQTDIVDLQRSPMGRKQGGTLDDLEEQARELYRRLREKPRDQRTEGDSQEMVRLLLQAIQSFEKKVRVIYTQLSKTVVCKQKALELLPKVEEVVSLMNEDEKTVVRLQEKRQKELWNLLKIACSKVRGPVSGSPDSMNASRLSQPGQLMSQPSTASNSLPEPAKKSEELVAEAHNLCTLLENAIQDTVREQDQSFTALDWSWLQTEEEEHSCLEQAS
T1 sequence (O15111 whole entry partner): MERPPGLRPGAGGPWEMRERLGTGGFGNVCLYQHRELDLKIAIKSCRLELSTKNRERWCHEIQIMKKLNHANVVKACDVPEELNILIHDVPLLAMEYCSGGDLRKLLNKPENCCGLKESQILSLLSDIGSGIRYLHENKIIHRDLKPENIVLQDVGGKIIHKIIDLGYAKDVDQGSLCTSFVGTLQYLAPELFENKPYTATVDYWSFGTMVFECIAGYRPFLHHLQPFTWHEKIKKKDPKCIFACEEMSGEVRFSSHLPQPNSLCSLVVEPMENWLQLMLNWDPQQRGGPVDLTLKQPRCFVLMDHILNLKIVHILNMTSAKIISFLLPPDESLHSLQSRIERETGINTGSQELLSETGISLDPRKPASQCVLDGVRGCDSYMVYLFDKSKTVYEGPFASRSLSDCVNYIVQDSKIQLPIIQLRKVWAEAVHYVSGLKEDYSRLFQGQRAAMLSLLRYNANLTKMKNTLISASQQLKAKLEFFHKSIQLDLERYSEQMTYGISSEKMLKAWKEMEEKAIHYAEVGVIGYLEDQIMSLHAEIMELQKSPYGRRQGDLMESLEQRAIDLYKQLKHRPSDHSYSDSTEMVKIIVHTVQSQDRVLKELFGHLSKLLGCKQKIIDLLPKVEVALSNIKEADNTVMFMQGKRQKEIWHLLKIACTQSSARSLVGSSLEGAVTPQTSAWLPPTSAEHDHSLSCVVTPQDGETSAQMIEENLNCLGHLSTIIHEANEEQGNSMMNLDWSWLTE
T1 sequence (Q9Y6K9 whole entry partner): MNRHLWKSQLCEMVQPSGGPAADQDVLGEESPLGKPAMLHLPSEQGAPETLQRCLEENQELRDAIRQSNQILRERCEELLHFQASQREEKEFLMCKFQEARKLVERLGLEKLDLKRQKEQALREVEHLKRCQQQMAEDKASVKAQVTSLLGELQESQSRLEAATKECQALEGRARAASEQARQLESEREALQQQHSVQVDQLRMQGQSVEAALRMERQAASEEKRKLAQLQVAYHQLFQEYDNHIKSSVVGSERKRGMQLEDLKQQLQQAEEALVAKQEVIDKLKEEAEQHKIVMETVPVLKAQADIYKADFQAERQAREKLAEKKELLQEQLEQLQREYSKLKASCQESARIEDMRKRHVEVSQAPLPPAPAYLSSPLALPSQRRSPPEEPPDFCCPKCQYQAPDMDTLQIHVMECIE
Procedure: In vitro kinase assay: THP-1 cells (1×10^7 cells) were stimulated with 1 μg/ml LPS for the indicated time periods and whole cell extracts were prepared as described above. IKK was immunoprecipitated with an IKKα/β antibody (raised against amino acid 470-755 of IKKβ of human origin but partially cross-reactive with IKKα as detected by Western Blotting (Santa Cruz Biotechnology Inc.). Compound A was diluted in kinase buffer (25 mM HEPES pH 7.5, 10 mM magnesium acetate, 50 μM ATP) at the appropriate concentrations. The compound was added to the beads for 30 min. at 30° C. The kinase reaction was started by adding 2.5 μg of the GST-IκBα substrate (Santa Cruz Biotechnology Inc.) together with 2 μCi γ-^32P-ATP (Amersham Pharmacia Biotech) per sample. The reaction was allowed to proceed for 30 min. at 30° C., and the IKK activity was measured by the amount of radioactive-labelled GST-IκBα bands, quantified by the STORM860 Phospho-Imager.
A general problem with the kinase assay is prestimulation of the kinase. To achieve a value for the zero-point, the LPS-activated IKK mixture was incubated with 20 μM myricetin (Sigma-Aldrich), which is a known IKKβ inhibitor (S. H. Tsal et al., J. Cell Biochem. 74, 1999, pp. 606-615). This value was subtracted from the all other values. All data are expressed as percentage of the activity of the LPS-activated IKKβ kinase treated with 0.1% DMSO.

NYH SCLC cells = assay: DNA synthesis (tritiated thymidine incorporation) in NYH SCLC cells; type: cell-based; settings: incorporation of tritiated thymidine in NYH SCLC cells; read-out: NYH proliferation in vitro (IC50 nM)
Procedure: DNA synthesis: NYH SCLC, HT-1080, Colo-320, PC-3 and H460 cells (7.5×10^3 cells/ml) were seeded in tissue culture vessels and the test compound were added 2 h after plating. Following an incubation for 144 h tritiated thymidine (5 CI/mmol, Amersham Pharmacia Biotech) was added to the culture at the concentration of 1 μCi/ml, and the cells were incubated for additional 4 h. The incorporated thymidine was measured with a β-counter. Each compound concentration was tested in triplicate.

NYH Xenografts = assay: NYH xenografts in nude mice, tumour growth; type: in vivo, NMRI nu/nu mice; settings: nude mice with NYH SCLC tumours, 14 days of treatment with 20 mg/kg
Procedure: All of the animal experiments were conducted according to the guidelines and ethical standards of the Danish Committee for Animal Experiments. Female NMRI nu/nu mice 6 weeks of age were purchased from M&B (Ry, Denmark). The mice were allowed an acclimatisation period of 1-3 weeks before start of the experiments. The nude mice were housed in Scantainers under semi-sterile conditions and all handling of mice was performed in a laminar flow bench.
NYH Xenografts. NMRI nu/nu mice were injected with 1×10^7 cells in 0.2 ml media s.c. in both flanks and tumour growth was measured twice weekly. The tumour area was used as expression of the tumour size and was calculated from two perpendicular diameters measured with a digital caliper. Compound A was given for fourteen consecutive days by oral gavage from day 4-6 when the tumour size was 24-30 mm^2. Each treatment group consisted of 10 mice.
Statistical Methods In the animal models, tumour sizes were expressed by the mean of the trends in each treatment group. The trend is the linear increment or tumour size, where tumour size is the square root of the (mean) area of the tumour(s). Comparison with controls was expressed as T/C % and calculated as follows:
A=(overall mean tumour size at baseline+mean trend of treatment*intended days of treatment)
B=(overall mean tumour size at baseline+mean trend of control*intended days of treatment)
Overall mean tumour size at baseline=pooling all treatments this is the mean of all baseline values. For each mouse the baseline value is calculated as the square root of the (mean) area of the tumour(s).
Significance was tested with the Bonferroni correction. This correction is a method for adjusting (lowering) the significance level so the overall finding of one significant difference due to chance is around 5 percent.

NF-κB [1] = assay: NF-κB-dependent luciferase assay in HT-1080 cells, TNF-α stimulation; type: cell-based, human; settings: TNF-α 50 ng/ml, up to 24 h
Procedure: (§1) The NF-κB-luciferase reporter plasmid (pBIIX) and pRL-TK control vector described in Example 1 were used for the luciferase assay,
The HT-1080 cells were seeded at a density of 3×10^4 cells/cm^2 in 6 well-plates. The following day, the cells were co-transfected with construct DNA and pRL-TK vector using FuGene Transfection Reagent. A mixture of 10 μl Fugene and 90 μl serum free medium (per well) was prepared and Incubated for 5 min at room temperature. Then, this mixture was transferred to a mixture of construct DNA (1.25 μg per well) and pRL-TK vector (0.25 μg per well), gently mixed, incubated for 15 min at room temperature and added to the cells. The cells were treated at 37° C. with compound A (10^−12−10^−5 M) or DMSO for 24 h before stimulation with TNF-α (50 ng/ml) for 6 h.
(§2) The cell lysate was assayed for luciferase activity using the Dual luciferase kit as described by the manufacturer (Promega). All transfections were performed in triplicate. Firefly luciferase activity was corrected for differences in transfection efficiency by normalizing it to the measured Renilla luciferase activity.
(§3) NF-κB activity was measured by the luciferase assay described in Example 1.

NF-κB [2] = assay: NF-κB-dependent luciferase assay in PC-3 cells, TNF-α stimulation; type: cell-based, human; settings: TNF-α 50 ng/ml, up to 24 h
Procedure: as §1
The PC-3 cells were seeded at a density of 3×10^4 cells/cm^2 in 6 well-plates. The following day, the cells were co-transfected with construct DNA and pRL-TK vector using DOTAP liposomal transfection reagent (Boehringer Mannheim). The construct DNA (4.0 μg per well), the pRL-TK vector (1.0 μg per well), DOTAP (16.7 μl per well) and dH2O (total volume 100 μl per well) were carefully mixed and incubated for 15 min at 37° C. A growth medium without serum (900 μl per well) was added and the transfection mixture (1 ml per well) was added to the cells. After 4 h at 37° C., a growth medium with 20% FBS (1 ml per well) was added. The cells were treated at 37° C. with compound A (10^−12−10^−5 M) or DMSO for 24 h before stimulation with TNF-α (50 ng/ml) for 6 h.
as §2, §3

NF-κB [3] = assay: NF-κB-dependent luciferase assay in Colo-320 cells, TNF-α stimulation; type: cell-based, human; settings: TNF-α 50 ng/ml, up to 24 h
Procedure: as §1
The Colo-320 cells were seeded with a density of 5×10^4 cells/cm^2 in 6-well plates (NUNC). The following day, the cells were co-transfected with construct DNA and pRL-TK using FuGene Transfection Reagent (Boehringer Mannheim). A mixture of 5 μl Fugene and 95 μl serum free medium (per well) was prepared and incubated for 5 min at room temperature. Then, the mixture was transferred to a mixture of construct DNA (2.5 μg per well) and pRL-TK vector (0.25 μg per well), gently mixed, incubated for 15 min at room temperature and added to the cells. The cells were treated at 37° C. with compound A (10^−12−10^−5 M) or DMSO for 24 h before stimulation with TNF-α (50 ng/ml) for 6 h.
as §2, §3

IC50 (IKK; read-out: IKK activity in vitro (IC50 nM)) [nM]	IC50 (IKK; cell prints (M), head nM, read-out: IKK activity in vitro (IC50)) [nM]	Compound	IC50 (NYH SCLC cells) [nM]	NYH tumor growth in vivo (T/C in %) (NYH Xenografts) [%]	NF-κB activity increase compared to the control (NF-κB [1])	effect on the NF-κB activity (NF-κB [2])	NF-κB activity increase compared to the control (NF-κB [3]) [fold]
22 ± 2.4	–	COc1ccc(NC(=NC#N)NCCCCCCOc2ccc(Cl)cc2)cn1 [compound C]	567 ± 127	–	–	–	–
–	> 10000	CCOC(=O)c1cccc(NC(=NC#N)NCCCCCCOc2ccc(Cl)cc2)c1 [compound E]	597 ± 42	−17.1	–	–	–
–	–	TNF-α	–	–	approximately 12 fold	only a small effect	~46
